Data on 3 substances can be found in US20260125686A1, “COMPOSITIONS AND METHODS FOR MODULATION OF CFTR” (Cystic Fibrosis Foundation, priority 2022, published 2026).

The target of the data set is Exon 22 truncated CFTR (Homo sapiens, UniProt P13569). As to the kind of experiment: TECC-24 assay in 16HBEge-W1282X cells. The class given is cell-based. Details: contain the first 1239 amino acids of a WT CFTR; endogenous in cells. To be noted: for FSK+VX-770 AUC/min: in combination SA-08 10 μM. As for the experimental part: Electrophysiology. Clonal lines were seeded at a density of 4.5×10^5 cells cm-2 onto HTS Transwell 24-well filter inserts pre-coated with human collagen type IV. Cells were grown as submerged cultures in MEM (Gibco, 11095) containing 10% FBS and 1% Pen/Strep, and incubated at 37° C. and 5% CO2. Cells were treated from both the basolateral and apical side with fresh medium containing either control (vehicle) or test article for the treatment time indicated in the figure legends. After a total of 7 days, 16HBE cells typically formed electrically tight epithelia with a transepithelial resistance (Rt) of 200-600 Ω·cm2 and CFTR-mediated Cl— equivalent current (Ieq) was determined as described below.
Exon 22 truncated CFTR, sequence (P13569 with tags, fused parts or gaps): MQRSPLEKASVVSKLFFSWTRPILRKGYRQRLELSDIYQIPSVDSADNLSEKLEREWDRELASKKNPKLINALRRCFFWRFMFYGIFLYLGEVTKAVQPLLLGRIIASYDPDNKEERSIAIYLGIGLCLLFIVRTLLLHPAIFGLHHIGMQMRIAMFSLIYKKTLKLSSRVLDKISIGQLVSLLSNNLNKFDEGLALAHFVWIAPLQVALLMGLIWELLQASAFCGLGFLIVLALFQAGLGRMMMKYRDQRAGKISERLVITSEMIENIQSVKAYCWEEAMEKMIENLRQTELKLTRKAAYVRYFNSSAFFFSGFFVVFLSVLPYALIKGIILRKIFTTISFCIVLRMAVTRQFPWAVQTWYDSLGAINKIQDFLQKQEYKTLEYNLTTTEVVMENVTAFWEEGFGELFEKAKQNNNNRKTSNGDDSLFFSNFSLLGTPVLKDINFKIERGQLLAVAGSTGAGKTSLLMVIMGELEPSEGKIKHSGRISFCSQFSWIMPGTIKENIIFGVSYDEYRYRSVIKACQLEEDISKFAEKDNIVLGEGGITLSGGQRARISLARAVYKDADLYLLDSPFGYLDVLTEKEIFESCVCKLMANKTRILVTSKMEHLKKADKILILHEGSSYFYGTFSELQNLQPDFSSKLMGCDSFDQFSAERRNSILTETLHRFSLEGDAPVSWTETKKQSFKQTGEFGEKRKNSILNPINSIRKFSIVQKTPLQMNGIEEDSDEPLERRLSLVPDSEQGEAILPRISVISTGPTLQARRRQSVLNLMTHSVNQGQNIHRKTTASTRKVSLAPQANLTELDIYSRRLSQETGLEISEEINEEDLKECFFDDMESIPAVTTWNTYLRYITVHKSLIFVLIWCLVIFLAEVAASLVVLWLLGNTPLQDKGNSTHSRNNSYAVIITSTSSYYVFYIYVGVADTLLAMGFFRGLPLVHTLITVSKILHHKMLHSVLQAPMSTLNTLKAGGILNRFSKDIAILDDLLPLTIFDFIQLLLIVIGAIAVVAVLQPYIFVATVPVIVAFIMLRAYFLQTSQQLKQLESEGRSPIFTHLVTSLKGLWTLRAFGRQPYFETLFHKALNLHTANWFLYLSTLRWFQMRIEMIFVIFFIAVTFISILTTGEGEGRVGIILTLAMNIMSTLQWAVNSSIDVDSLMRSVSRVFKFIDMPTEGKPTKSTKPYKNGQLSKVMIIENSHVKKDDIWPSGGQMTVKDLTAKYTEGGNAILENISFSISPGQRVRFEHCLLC
Prior to functional (Ieq) studies, MEM was replaced with fresh HEPES-buffered (pH 7.4) solutions (assay buffer). A driving force for chloride ions was established through application of a basolateral to apical chloride ion gradient (see buffer composition below). Cell plates were mounted onto an automated robotic assay platform and equilibrated at ˜36° C. for 90 min. After equilibration, transepithelial voltage (Vt) and resistance (Rt) were monitored at ˜5 min intervals using a 24-channel transepithelial current clamp amplifier (TECC-24, EP Design, Bertem, Belgium). Electrode potential differences for each pair of Ag/AgCl voltage electrodes were also monitored at 5 min intervals by taking voltage measurements from a control plate with matching buffer solutions and 16HBE cells that were left untreated. Ieq was calculated from values of Vt and Rt using Ohm's law after correcting for series resistance and (electrode) voltage offsets unrelated to Vt. Ieq traces are plotted as mean±SD (n=3). The first 4 data points reflect baseline Ieq currents prior to sequential stimulation of CFTR with forskolin (10 μM) and VX-770/ivacaftor (1 μM). The last six data points were recorded in the presence of CFTR inhibitor CFTRinh-172 (20 μM). Agonists/antagonists were pre-diluted to 10-fold concentrations in assay buffer and add-ed to either the basolateral (forskolin) or apical (forskolin, VX-770/ivacaftor, and CFTRinh-172) side of the membrane (assay plates only). CFTR-mediated changes in Ieq, (i.e., delta forskolin, delta VX-770, delta CFTRinh-172, or the area under the curve (AUC) between forskolin and CFTRinh-172 addition) are used as a measure of functional CFTR surface expression or treatment-related functional rescue of mutant CFTR.
Assay buffer: CFTR-mediated transepithelial currents were recorded using a Cl— concentration gradient. The basolateral solution contained (mM): 137 NaCl, 4 KCl, 1.8 CaCl2, 1 MgCl2, 10 HEPES and D-Glucose, adjusted to pH 7.4 with NaOH/HCl ([CI-] total: 146.6 mM). The apical solution was matched to the basolateral except for (mM): 137 Na-gluconate replaced 137 NaCl ([Cl—] total: 9.6 mM).
The function of Exon 22 truncated CFTR protein was assayed by the transepithelial chloride conductance assay (TECC-24 assay), as depicted in FIG. 15A and FIG. 15B. 16HBEge-W1282X cells were incubated in 0.02% DMSO (vehicle) or VX445/VX661 prior to the TECC assay. Characteristic CFTR responses to forskolin, potentiator (VX-770), and CFTR inhibition (Inh-172) were recorded in the presence and absence of various doses and combinations of ASO treatments. […] ASO treatment further induced a larger chloride channel conductance compared to no ASO treatment.
The function of various CFTR proteins in the cells can be assessed by comparing the area under curve (AUC) of the induced chloride conductance obtained in the electrophysiology assays. The AUC of various mutant cell lines (e.g., 16HBEge-W1282X cells), with or without treatment, can be normalized to the AUC obtained from cells expressing WT CFTR protein and expressed as either a percentage of WT CFTR (% WT CFTR) or a ratio to WT CFTR (variant/WT CFTR). […]

As for “aaagcaagcagtgttcaaatct (antisense AAAGCAAGCAGTGTTCAAATCT; all 2'-MOE, all phosphorothioate, methylation of C not given here) [SD10, PS backbone, 2′-MOE]”, the “chloride conductance AUC, of WT” value (10 μM SD10, with Trikafta) is “about 9%”. For the same substance, the “increase in AUC (of WT)” value (10 μM SD10, without Trikafta treatment) is given as 2.9%. Moreover, the “FSK+VX-770 AUC/min” value is, setting by setting: ((+) VX-445/VX-661 (3/3 μM), SD-10 100 μM) 11.5+/−0.5 μA/cm^2; ((+) VX-445/VX-661 (3/3 μM), SD-10 printed '(μM)' / 10 μM) 10.4+/−1.2 μA/cm^2; ((−) VX-445/VX-661, SD-10 100 μM) 4.6+/−0.4 μA/cm^2; ((−) VX-445/VX-661, SD-10 printed '(μM)' / 10 μM) 5.5+/−0.7 μA/cm^2.

For “ataaggtaaaagtgatgggatc (antisense ATAAGGTAAAAGTGATGGGATC; all 2'-MOE, all phosphorothioate, methylation of C not given here) [SA8, PS backbone, 2′-MOE]”, the “chloride conductance AUC, of WT” value runs as follows: (0.1 μM SA08, with Trikafta) “about 3.1%”; (1 μM SA08, with Trikafta) approximately 4.9%; (2 μM SA08, with Trikafta) approximately 6.2%.

Turning to “elexacaftor/ivacaftor/tezacaftor [Trikafta]”, the “Ex22 truncated CFTR function, of WT CFTR function” value (Trikafta (3/3 μM VX-661/445 48 h, 3 μM VX-770), no ASO) is approximately 3%.
